Data as given in patent EP0019589A1, “Tripeptide derivatives and their use in a process for determining enzymes” (Pentapharm A.G., priority 1979, dated 1980).
Non-standard residues stand in square brackets, D forms with d. Residues, ends and D or L forms follow the SMILES beside them. *: point of attachment. Cha = N[C@@H](CC1CCCCC1)C(=O)O; dChg = N[C@@H](C(=O)O)C1CCCCC1; pNA = O=[N+]([O-])c1ccc(N*)cc1; AMC = Cc1cc(=O)oc2cc(N*)ccc12; βNA = c1ccc2cc(N*)ccc2c1

What was measured:
Format in all cases: biochemical
[1] = target: T1, Submandibularis-Kallikrein (Homo sapiens, UniProt P06870); assay: Cleavage of chromogenic substrate by submandibular (glandular) kallikrein in human sputum; details: 1 ml human sputum, per min; Substratkonzentration 2 x 10^-4 molar
T1 construct: Man mischt 0,5 ml Sputum mit 2 ml TRIS-Imidazol-Puffer; from tissue; host or cells: human sputum
Description: 2. Bestimmung des Glandulärkallikreins im Sputum: • Man mischt 0,5 ml Sputum mit 2 ml TRIS-Imidazol-Puffer (Ionenstärke 1,0) und präinkubiert die Mischung 5 Min. bei 37°C. Das Inkubat wird zentrifugiert. In eine Testküvette wird 1,5 ml dest. H2O von 37°C vorgelegt und mit 0,25 ml des Zentrifugats versetzt. Die Komponenten werden gut gemischt. Dann wird 0,2 ml 2 x 10-^3 molare wässrige Substratlösung zugesetzt und gemischt. Dann wird bei 405 nm die Extinktions- änderung kontinuierlich mittels eines Schreibers während 5-10 Min. verfolgt. Aus dem ermittelten Δ OD pro Min. wird mittels der nachstehenden Formel die Kallikreinaktivität pro ml Sputum in mU errechnet: [formula] • F = 5 • V = 1,95 • v = 0,25 • 1 U (Einheit) = Enzymmenge, die während 1 Min. 1 µMol Substrat unter optimalen oder sonst festgelegten Bedingungen in Bezug auf pH, Ionenstärke, Temperatur und Substratkonzentration zu spalten vermag
Bei der Messung des durch die enzymatische Hydrolyse des Substrates gebildeten Spaltproduktes RrNH2 geht man von der Voraussetzung aus, dass das Spaltprodukt ein UV-Spektrum besitzt, das von demjenigen des Substrates verschieden und in Richtung höherer Wellenlängen verschoben ist. Die Absorption des Substrates bei 405 nm ist praktisch Null. p-Nitroanilin als Spaltprodukt weist ein Absorptionsmaximum bei 380 nm und einen molaren Extinktionskoeffizienten von 13'200 auf. Bei 405 nm ist der Extinktionskoeffizient nur wenig niedriger, d.h. […] Der Grad der enzymatischen Hydrolyse des Substrates, welcher der Menge des abgespaltenen p-Nitroanilins proportional ist, lässt sich durch spektrophotometrische Messung bei 405 nm bestimmen. Auch bei Anwesenheit eines Ueberschusses an Substrat wird die Messung bei 405 nm nicht gestört. […]

Humanplasmin = target: T2, Humanplasmin (Homo sapiens, UniProt P00747); assay: Cleavage of chromogenic substrate by human plasmin; details: 1 CU-Einheit human plasmin, per min; Substratkonzentration 2 x 10^-4 molar
T2 construct: da bei der Aktivierung aus 1 Molekül Plasminogen 1 Molekül Plasmin entsteht
Description: 3. Bestimmung von Plasmin:
Man mischt 1,7 ml TRIS-Imidazol-Puffer (pH 7,5, Ionenstärke 0,2) bei 37°C mit 0,1 ml einer Lösung von Plasmin in 25%igem Glycerin und inkubiert die Mischung während 1 Min. bei 37°C. Dann gibt man der Mischung 0,2 ml einer wässrigen 2 x 10^-3 molaren Substxatlösung von 37°C zu und durchmischt das Ganze schnell. Man ermittelt dann kontinuierlich die pro Zeiteinheit aus dem Substrat freigesetzte Menge des Spaltproduktes R-NH2. Aus dem pro Min. ermittelten Wert berechnet man dann die Plasminaktivität pro ml Probe in mU nach der folgenden Formel: [formula] • ΔE = pro Min. freigesetzte Menge des Spaltproduktes • V = Totalvolumen des Testansatzes • v = Volumen der Probe • = Extinktionskoeffizient dividiert durch 1000
(§1) Bei der Messung des durch die enzymatische Hydrolyse des Substrates gebildeten Spaltproduktes RrNH2 geht man von der Voraussetzung aus, dass das Spaltprodukt ein UV-Spektrum besitzt, das von demjenigen des Substrates verschieden und in Richtung höherer Wellenlängen verschoben ist. Die Absorption des Substrates bei 405 nm ist praktisch Null. p-Nitroanilin als Spaltprodukt weist ein Absorptionsmaximum bei 380 nm und einen molaren Extinktionskoeffizienten von 13'200 auf. Bei 405 nm ist der Extinktionskoeffizient nur wenig niedriger, d.h. […] Der Grad der enzymatischen Hydrolyse des Substrates, welcher der Menge des abgespaltenen p-Nitroanilins proportional ist, lässt sich durch spektrophotometrische Messung bei 405 nm bestimmen. Auch bei Anwesenheit eines Ueberschusses an Substrat wird die Messung bei 405 nm nicht gestört.
(§2) Bei den Substraten, die als chromogene Gruppe eine 2-Naphthylamino-, 4-Methoxy-2-naphthylamino-, 4-Methyl-cumaryl-(7)-amino- oder 1,3-Di(methoxycarbonyl)-phenyl-(5)-amino-Gruppe enthalten, wird die Menge des Spaltproduktes R-NH2 durch Fluoreszenzspektrophotometrie gemessen. In einem aus Enzym, Puffer und Substrat bestehenden Testsystem misst man kontinuierlich das energieärmere emittierte Licht bei 400-470 nm, nachdem man das gebildete fluoreszierende Spaltprodukt mit energiereicherem Licht erregt hat. Die pro Zeiteinheit gebildete Menge Spaltprodukt ist ein Mass für die vorhandene Enzymaktivität. 1 µMol Spaltprodukt pro Minute entspricht definitionsgemäss 1 Enzym-Einheit, bezogen auf ein gegebenes Substrat.

Humanthrombin = target: T3, Humanthrombin (Homo sapiens, UniProt P00734); assay: Cleavage of chromogenic substrate by human NIH thrombin; details: 1 NIH-Einheit human thrombin, per min; Substratkonzentration 2 x 10^-4 molar
T3 construct: Humanplasmin und hu-manem NIH-Thrombin
Description: as §1, §2

Urinkallikrein = target: T4, Urinkallikrein (Homo sapiens, UniProt P06870); assay: Cleavage of chromogenic substrate by urinary kallikrein in human urine; details: 1 ml human urine (pooled morning urine of healthy persons), per min; Substratkonzentration 2 x 10^-4 molar
T4 construct: 1 ml Urin und 1 ml TRIS-Imidazol-Puffer mit pH 7,9; from tissue; host or cells: human urine
Description: 1. Bestimmung von Urinkallikrein.
1 ml Urin und 1 ml TRIS-Imidazol-Puffer mit pH 7,9 und Ionenstärke 1,0 werden 5 Min. bei 37°C inkubiert undcänn zentrifugiert, um Sedimente zu entfernen.
In einer-Plastikküvette werden 1,4 ml dest. H20 von 37°C und 0,4 ml des Zentrifugats gut gemischt. Zu dieser Mischung gibt man 0,2 ml einer 2 x 10^-3 molaren wässrigen Substratlösung und durchmischt die Komponenten schnell. Dieses Gemisch wird genau 15 Min. bei 37°C inkubiert. Dann wird dem Reaktionsgemisch 0,2 ml Eisessig zugemischt, um die Enzymreaktion zu unterbrechen. Zur Farbmessung verwendet man eine Vergleichsprobe (Blindprobe), die aus den gleichen Komponenten zusammengesetzt ist, wobei jedoch der Eisessig vor Zugabe des Substrates zugesetzt wird, um die Enzymreaktion zu verhindern. Dann wird bei 405 nm photometrisch oder spektrophotometrisch die Menge der gebildeten farbigen Verbindung RNH 2 aus der Differenz zwischen der Blindprobe und der zu bestimmenden Probe ermittelt. Aus dem ermittelten Wert wird die Urinkallikreinaktivität im Urin nach der folgenden Formel berechnet: [formula] • Δ OD = Zunahme der optischen Dichte bei 405 nm während 15 Min. • V = Totalvolumen des Bestimmungsansatzes = 2,2 ml • 1000 = Umrechnungsfaktor zur Umwandlung von U in mU • F = Verdünnungsfaktor des Urins (2) • v = Volumen der Probe = 0,4 ml • ε = Extinktionskoeffizient dividiert durch 1000 = 10,4
Bei der oben beschriebenen Bestimmungsmethode misst man somit die Summe der Aktivitäten von Urinkallikrein und Urokinase. Um die genaue Urinkallikreinaktivität zu erhalten, muss man die Urokinaseaktivität abziehen, welche dadurch bestimmt werden kann, dass man in einem Vergleichsversuch durch Zugabe von 0,075 Einheiten Trypsininhibitor (Trypsininhibitor aus Rinderlunge) pro ml Puffer die Urinkallikreinaktivität vollständig hemmt und nur die Urokinaseaktivität misst.
as §1, §2

T1 sequence (P06870 25-262): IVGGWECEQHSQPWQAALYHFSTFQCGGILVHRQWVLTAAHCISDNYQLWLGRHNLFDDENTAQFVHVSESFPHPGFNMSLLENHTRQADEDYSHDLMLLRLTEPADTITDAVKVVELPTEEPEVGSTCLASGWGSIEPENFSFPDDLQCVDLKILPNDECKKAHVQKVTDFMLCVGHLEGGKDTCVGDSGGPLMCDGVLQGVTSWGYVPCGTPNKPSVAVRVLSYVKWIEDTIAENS
T4 sequence (P06870 25-262): as above
T2 sequence (P00747 581-810 limits assumed): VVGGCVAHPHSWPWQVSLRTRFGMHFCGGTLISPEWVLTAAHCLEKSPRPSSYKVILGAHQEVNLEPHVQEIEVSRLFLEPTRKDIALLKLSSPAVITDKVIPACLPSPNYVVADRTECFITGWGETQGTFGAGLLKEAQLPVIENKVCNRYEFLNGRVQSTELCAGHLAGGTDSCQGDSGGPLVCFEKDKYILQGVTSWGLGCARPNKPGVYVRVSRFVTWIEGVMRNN
T2 sequence (P00747 97-580 partner limits assumed): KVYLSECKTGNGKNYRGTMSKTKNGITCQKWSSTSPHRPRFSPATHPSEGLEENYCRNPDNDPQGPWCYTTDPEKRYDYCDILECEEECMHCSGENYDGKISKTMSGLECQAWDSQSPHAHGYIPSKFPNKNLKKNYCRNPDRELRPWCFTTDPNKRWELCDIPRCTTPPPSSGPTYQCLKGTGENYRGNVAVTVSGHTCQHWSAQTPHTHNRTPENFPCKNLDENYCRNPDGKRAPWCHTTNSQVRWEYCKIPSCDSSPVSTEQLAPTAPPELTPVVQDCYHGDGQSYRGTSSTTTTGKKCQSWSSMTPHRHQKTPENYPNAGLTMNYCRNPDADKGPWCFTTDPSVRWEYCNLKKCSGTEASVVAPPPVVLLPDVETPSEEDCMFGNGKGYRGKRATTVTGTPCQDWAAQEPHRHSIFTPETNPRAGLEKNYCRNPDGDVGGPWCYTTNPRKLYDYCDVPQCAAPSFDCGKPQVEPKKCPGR

## 2HBr.H-D-CHT-Phe-Arg-pNA [Beispiel 17]
[1]
  Menge des durch 1 ml Humansputum pro Min. freigesetzten Spaltproduktes R-NH2 in Nanomol (Submandibularis-Kallikrein): 7,4 Nanomol
Humanplasmin
  Menge des durch 1 CU-Einheit Humanplasmin pro Min. freigesetzten Spaltproduktes R-NH2 in Nanomol (Humanplasmin): 860 Nanomol
Humanthrombin
  Menge des durch 1 NIH-Einheit Thrombin pro Min. freigesetzten Spaltproduktes R-NH2 in Nanomol (Humanthrombin): 18,7 Nanomol
Urinkallikrein
  Menge des durch 1 ml Humanurin pro Min. freigesetzten Spaltproduktes R-NH2 in Nanomol (Urinkallikrein): 0,77 Nanomol

## CC(C)C[C@H](NC(=O)[C@H](N)C(C)C)C(=O)N[C@@H](CCCNC(=N)N)C(=O)Nc1ccc([N+](=O)[O-])cc1 [A, 2HCl.H-D-Val-Leu-Arg-pNA, reference compound] (H-[dV]-Leu-Arg-pNA)
[1]
  Menge des durch 1 ml Humansputum pro Min. freigesetzten Spaltproduktes R-NH2 in Nanomol (Submandibularis-Kallikrein): 12,2 Nanomol
Humanplasmin
  Menge des durch 1 CU-Einheit Humanplasmin pro Min. freigesetzten Spaltproduktes R-NH2 in Nanomol (Humanplasmin): 83 Nanomol
Urinkallikrein
  Menge des durch 1 ml Humanurin pro Min. freigesetzten Spaltproduktes R-NH2 in Nanomol (Urinkallikrein): 0,90 Nanomol

## CC(C)C[C@H](NC(=O)[C@H](N)C(C)C)C(=O)N[C@@H](CCCCN)C(=O)Nc1ccc([N+](=O)[O-])cc1 [B, 2HCl.H-D-Val-Leu-Lys-pNA, reference compound] (H-[dV]-Leu-Lys-pNA)
[1]
  Menge des durch 1 ml Humansputum pro Min. freigesetzten Spaltproduktes R-NH2 in Nanomol (Submandibularis-Kallikrein): 5,7 Nanomol
Humanplasmin
  Menge des durch 1 CU-Einheit Humanplasmin pro Min. freigesetzten Spaltproduktes R-NH2 in Nanomol (Humanplasmin): 347 Nanomol
Urinkallikrein
  Menge des durch 1 ml Humanurin pro Min. freigesetzten Spaltproduktes R-NH2 in Nanomol (Urinkallikrein): 0,30 Nanomol

## NCCCC[C@H](NC(=O)[C@H](Cc1ccccc1)NC(=O)[C@H](N)C1CCCCC1)C(=O)Nc1ccc([N+](=O)[O-])cc1 [Beispiel 2, 2HBr.H-D-CHG-Phe-Lys-pNA] (H-[dChg]-Phe-Lys-pNA)
[1]
  Menge des durch 1 ml Humansputum pro Min. freigesetzten Spaltproduktes R-NH2 in Nanomol (Submandibularis-Kallikrein): 25,6 Nanomol
Humanplasmin
  Menge des durch 1 CU-Einheit Humanplasmin pro Min. freigesetzten Spaltproduktes R-NH2 in Nanomol (Humanplasmin): 1150 Nanomol
Urinkallikrein
  Menge des durch 1 ml Humanurin pro Min. freigesetzten Spaltproduktes R-NH2 in Nanomol (Urinkallikrein): 0,80 Nanomol

## Cc1cc(=O)oc2cc(NC(=O)[C@H](CCCNC(=N)N)NC(=O)[C@H](CC3CCCCC3)NC(=O)[C@H](N)C(C)C)ccc12 [Beispiel 3, 2HBr.H-D-Val-CHA-Arg-MCA] (H-[dV]-[Cha]-Arg-{AMC})
[1]
  Menge des durch 1 ml Humansputum pro Min. freigesetzten Spaltproduktes R-NH2 in Nanomol (Submandibularis-Kallikrein): 31,2 Nanomol
Humanplasmin
  Menge des durch 1 CU-Einheit Humanplasmin pro Min. freigesetzten Spaltproduktes R-NH2 in Nanomol (Humanplasmin): 430 Nanomol
Urinkallikrein
  Menge des durch 1 ml Humanurin pro Min. freigesetzten Spaltproduktes R-NH2 in Nanomol (Urinkallikrein): 2,55 Nanomol

## Cc1cc(=O)oc2cc(NC(=O)[C@H](CCCCN)NC(=O)[C@H](Cc3ccccc3)NC(=O)[C@H](N)C3CCCCC3)ccc12 [Beispiel 4, 2HBr.H-D-CHG-Phe-Lys-MCA] (H-[dChg]-Phe-Lys-{AMC})
[1]
  Menge des durch 1 ml Humansputum pro Min. freigesetzten Spaltproduktes R-NH2 in Nanomol (Submandibularis-Kallikrein): 15,7 Nanomol
Humanplasmin
  Menge des durch 1 CU-Einheit Humanplasmin pro Min. freigesetzten Spaltproduktes R-NH2 in Nanomol (Humanplasmin): 1120 Nanomol
Urinkallikrein
  Menge des durch 1 ml Humanurin pro Min. freigesetzten Spaltproduktes R-NH2 in Nanomol (Urinkallikrein): 0,60 Nanomol

## COC(=O)c1cc(NC(=O)[C@H](CCCNC(=N)N)NC(=O)[C@H](CC2CCCCC2)NC(=O)[C@H](N)C(C)C)cc(C(=O)OC)c1 [Beispiel 5, 2HBr.H-D-Val-CHA-Arg-DPA]
[1]
  Menge des durch 1 ml Humansputum pro Min. freigesetzten Spaltproduktes R-NH2 in Nanomol (Submandibularis-Kallikrein): 28,5 Nanomol
Humanplasmin
  Menge des durch 1 CU-Einheit Humanplasmin pro Min. freigesetzten Spaltproduktes R-NH2 in Nanomol (Humanplasmin): 408 Nanomol
Urinkallikrein
  Menge des durch 1 ml Humanurin pro Min. freigesetzten Spaltproduktes R-NH2 in Nanomol (Urinkallikrein): 2,42 Nanomol

## COC(=O)c1cc(NC(=O)[C@H](CCCCN)NC(=O)[C@H](Cc2ccccc2)NC(=O)[C@H](N)C2CCCCC2)cc(C(=O)OC)c1 [Beispiel 6, 2HBr.H-D-CHG-Phe-Lys-DPA]
[1]
  Menge des durch 1 ml Humansputum pro Min. freigesetzten Spaltproduktes R-NH2 in Nanomol (Submandibularis-Kallikrein): 24,8 Nanomol
Humanplasmin
  Menge des durch 1 CU-Einheit Humanplasmin pro Min. freigesetzten Spaltproduktes R-NH2 in Nanomol (Humanplasmin): 1215 Nanomol
Urinkallikrein
  Menge des durch 1 ml Humanurin pro Min. freigesetzten Spaltproduktes R-NH2 in Nanomol (Urinkallikrein): 0,72 Nanomol

## CC(C)[C@@H](N)C(=O)N[C@@H](CC1CCCCC1)C(=O)N[C@@H](CCCNC(=N)N)C(=O)Nc1ccc2ccccc2c1 [Beispiel 7, 2HBr.H-D-Val-CHA-Arg-2-NA] (H-[dV]-[Cha]-Arg-βNA)
[1]
  Menge des durch 1 ml Humansputum pro Min. freigesetzten Spaltproduktes R-NH2 in Nanomol (Submandibularis-Kallikrein): 31,1 Nanomol
Humanplasmin
  Menge des durch 1 CU-Einheit Humanplasmin pro Min. freigesetzten Spaltproduktes R-NH2 in Nanomol (Humanplasmin): 428 Nanomol
Urinkallikrein
  Menge des durch 1 ml Humanurin pro Min. freigesetzten Spaltproduktes R-NH2 in Nanomol (Urinkallikrein): 2,55 Nanomol

## NCCCC[C@H](NC(=O)[C@H](Cc1ccccc1)NC(=O)[C@H](N)C1CCCCC1)C(=O)Nc1ccc2ccccc2c1 [Beispiel 8, 2HBr.H-D-CHG-Phe-Lys-2-NA] (H-[dChg]-Phe-Lys-βNA)
[1]
  Menge des durch 1 ml Humansputum pro Min. freigesetzten Spaltproduktes R-NH2 in Nanomol (Submandibularis-Kallikrein): 17,6 Nanomol
Humanplasmin
  Menge des durch 1 CU-Einheit Humanplasmin pro Min. freigesetzten Spaltproduktes R-NH2 in Nanomol (Humanplasmin): 1180 Nanomol
Urinkallikrein
  Menge des durch 1 ml Humanurin pro Min. freigesetzten Spaltproduktes R-NH2 in Nanomol (Urinkallikrein): 0,58 Nanomol

## COc1cc(NC(=O)[C@H](CCCNC(=N)N)NC(=O)[C@H](CC2CCCCC2)NC(=O)[C@H](N)C(C)C)cc2ccccc12 [Beispiel 9, 2HBr.H-D-Val-CHA-Arg-4-MeO-2-NA]
[1]
  Menge des durch 1 ml Humansputum pro Min. freigesetzten Spaltproduktes R-NH2 in Nanomol (Submandibularis-Kallikrein): 25,4 Nanomol
Humanplasmin
  Menge des durch 1 CU-Einheit Humanplasmin pro Min. freigesetzten Spaltproduktes R-NH2 in Nanomol (Humanplasmin): 388 Nanomol
Urinkallikrein
  Menge des durch 1 ml Humanurin pro Min. freigesetzten Spaltproduktes R-NH2 in Nanomol (Urinkallikrein): 2,38 Nanomol

## COc1cc(NC(=O)[C@H](CCCCN)NC(=O)[C@H](Cc2ccccc2)NC(=O)[C@H](N)C2CCCCC2)cc2ccccc12 [Beispiel 10, 2HBr.H-D-CHG-Phe-Lys-4-MeO-2-NA]
[1]
  Menge des durch 1 ml Humansputum pro Min. freigesetzten Spaltproduktes R-NH2 in Nanomol (Submandibularis-Kallikrein): 14,9 Nanomol
Humanplasmin
  Menge des durch 1 CU-Einheit Humanplasmin pro Min. freigesetzten Spaltproduktes R-NH2 in Nanomol (Humanplasmin): 1165 Nanomol
Urinkallikrein
  Menge des durch 1 ml Humanurin pro Min. freigesetzten Spaltproduktes R-NH2 in Nanomol (Urinkallikrein): 0,61 Nanomol
